Data as given in EP1363899B1, “QUINAZOLONE DERIVATIVES AS ALPHA 1A/B ADRENERGIC RECEPTOR ANTAGONISTS” (F.HOFFMANN-LA ROCHE AG, priority 2001, dated 2002).

Key:
alpha-1D adrenoceptor = target: T1, alpha-1D adrenoceptor (Homo sapiens, UniProt P25100); assay: [3H]prazosin binding (alpha1-adrenoceptor) assay, alpha-1D; settings: membranes of transfected CHO-KI cells, read-out: affinity towards the alpha-1D adrenoceptor (pKi) (converted)
T1 construct: expressed in transfected cells; host or cells: CHO-K1
T1 sequence (P25100 1-572): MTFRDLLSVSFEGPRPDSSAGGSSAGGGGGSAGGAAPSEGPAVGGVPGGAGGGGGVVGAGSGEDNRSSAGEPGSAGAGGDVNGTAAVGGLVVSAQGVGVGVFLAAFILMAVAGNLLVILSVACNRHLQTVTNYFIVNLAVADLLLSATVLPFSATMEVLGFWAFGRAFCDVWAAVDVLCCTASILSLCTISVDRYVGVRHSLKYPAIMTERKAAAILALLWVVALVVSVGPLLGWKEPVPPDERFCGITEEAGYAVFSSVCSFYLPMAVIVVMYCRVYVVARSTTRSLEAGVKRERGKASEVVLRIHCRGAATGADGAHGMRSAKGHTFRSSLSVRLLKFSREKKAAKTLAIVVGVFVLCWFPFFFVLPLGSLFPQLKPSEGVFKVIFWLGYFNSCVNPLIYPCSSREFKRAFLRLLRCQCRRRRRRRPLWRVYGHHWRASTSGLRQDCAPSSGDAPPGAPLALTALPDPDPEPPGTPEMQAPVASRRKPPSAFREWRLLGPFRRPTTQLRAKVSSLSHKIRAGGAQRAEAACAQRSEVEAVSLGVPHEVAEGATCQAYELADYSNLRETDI
Procedure: (§1) Alpha1A, alpha1B, and alpha1D adrenoceptor transfected CHO-KI cells, prepared using the methods described by Chang et al., FEBS Lett. 1998, 422:279-283, were grown to confluence in T-162 tissue culture flasks in Ham's F-12 culture medium supplemented with 10% fetal bovine serum, geneticin (150 µg/mL) and streptomycin/penicillin (30 µg/mL/30 µg/mL) at 37 °C in 7% CO2. Cells were harvested by incubating with phosphate-buffered saline (PBS) containing 30 µM EDTA for 5-10 min at 37 °C. Cells were pelleted by centrifuging at 500 x g for 5 min, and the pelleted cells were homogenized (Polytron homogenizer) in 10 vols (w/v) of 50 mM Tris, 1 mM EDTA, (homogenisation buffer, pH 7.4 at 4 °C). The homogenate was centrifuged at 45,000 x g for 20 min. The pellet was resuspended in the homogenizing buffer and rehomogenized. The resulting homogenate was centrifuged at 45,000 x g for 20 min. The pellet was resuspended in 50 mM Tris buffer (pH 7.4 at 4 °C), aliquoted, frozen, and stored at -80 °C for further use.
(§2) The membranes were thawed at room temperature and diluted in assay buffer (50 mM Tris buffer at […]) at 37 °C and homogenized using the Polytron tissue disrupter. The membranes were incubated with the radioligand ([^3H]prazosin, NEN, 0.1 - 0.5 nM) and test compound at 37 °C for 30 min. The membranes were then filtered over polyethyleneimine-treated GF/B unifilter plates using a Packard Filtermate Harvester and washed with ice-cold 50 mM Tris-HCl, 1 mM EDTA buffer (3 x 3 sec. washes). Scintillation cocktail was added to the filter plates and bound radioligand determined by liquid scintillation spectrophotometry.
(§3) For each experiment, total binding (in the absence of any test or reference compounds) and non-specific binding (10 µM phentolamine) were determined. For each sample tested, the concentration producing 50% inhibition of binding (IC50) and Hill Slope (nH) was determined using iterative non-linear curve fitting techniques with Kaleidagraph (Synergy Software) or other appropriate software. If the radioligand KD was known, the inhibition dissociation constant (K1) of each ligand was determined according to the method of Cheng and Prusoff (Cheng, Y-C. and Prusoff, W.H., Biochem. Pharmacol., 1973, 22, 3099-3108).

alpha-1A adrenoceptor = target: T2, alpha-1A adrenoceptor (Homo sapiens, UniProt P35348); assay: [3H]prazosin binding (alpha1-adrenoceptor) assay, alpha-1A; settings: membranes of transfected CHO-KI cells, read-out: affinity towards the alpha-1A adrenoceptor (pKi) (converted)
T2 construct: expressed in transfected cells; host or cells: CHO-K1
T2 sequence (P35348 1-466): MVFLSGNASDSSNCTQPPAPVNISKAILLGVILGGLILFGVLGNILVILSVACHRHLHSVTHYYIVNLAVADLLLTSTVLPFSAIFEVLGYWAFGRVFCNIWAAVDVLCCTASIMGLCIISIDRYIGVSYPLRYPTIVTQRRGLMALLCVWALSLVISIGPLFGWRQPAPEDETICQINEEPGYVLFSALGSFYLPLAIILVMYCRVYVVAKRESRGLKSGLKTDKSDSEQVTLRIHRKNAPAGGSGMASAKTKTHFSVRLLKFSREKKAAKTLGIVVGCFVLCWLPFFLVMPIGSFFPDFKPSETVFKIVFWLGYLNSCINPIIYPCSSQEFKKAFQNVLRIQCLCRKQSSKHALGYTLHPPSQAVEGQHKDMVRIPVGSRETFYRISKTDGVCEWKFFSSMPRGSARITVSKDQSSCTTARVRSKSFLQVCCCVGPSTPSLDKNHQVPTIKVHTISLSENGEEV
Procedure: as §1, §2, §3

alpha-1B adrenoceptor = target: T3, alpha-1B adrenoceptor (Homo sapiens, UniProt P35368); assay: [3H]prazosin binding (alpha1-adrenoceptor) assay, alpha-1B; settings: membranes of transfected CHO-KI cells, read-out: affinity towards the alpha-1B adrenoceptor (pKi) (converted)
T3 construct: expressed in transfected cells; host or cells: CHO-K1
T3 sequence (P35368 1-520): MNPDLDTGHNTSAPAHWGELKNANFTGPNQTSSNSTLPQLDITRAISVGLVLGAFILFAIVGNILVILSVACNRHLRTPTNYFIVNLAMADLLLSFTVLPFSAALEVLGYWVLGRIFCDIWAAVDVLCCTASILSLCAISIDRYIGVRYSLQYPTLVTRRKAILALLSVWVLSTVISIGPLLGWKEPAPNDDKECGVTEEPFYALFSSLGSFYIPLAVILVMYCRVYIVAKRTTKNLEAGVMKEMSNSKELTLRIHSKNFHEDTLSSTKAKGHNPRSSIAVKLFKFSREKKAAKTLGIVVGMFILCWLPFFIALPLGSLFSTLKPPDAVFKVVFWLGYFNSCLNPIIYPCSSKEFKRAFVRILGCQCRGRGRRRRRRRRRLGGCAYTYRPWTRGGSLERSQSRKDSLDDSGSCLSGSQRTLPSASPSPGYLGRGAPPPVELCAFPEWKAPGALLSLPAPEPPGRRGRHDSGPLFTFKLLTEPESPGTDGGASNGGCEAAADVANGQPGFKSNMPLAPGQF
Procedure: as §1, §2, §3

Question: With `COc1cc2nc(N3CCc4c(ncn4-c4ccc5c(c4)OCO5)C3)[nH]c(=O)c2cc1OC` [Compound 612, 2-(1-benzo[1,3]dioxol-5-yl-1,4,6,7-tetrahydro-imidazo[4,5-c]pyridin-5-yl)-6,7-dimethoxy-3H-quinazolin-4-one] as the molecule, how does the Ki (alpha-1D adrenoceptor) read?
Answer: Its Ki is 178 nM.

Question: What about the Ki (alpha-1A adrenoceptor) of the same molecule?
Answer: Its Ki is 2.69 nM.

Question: What about the Ki (alpha-1B adrenoceptor) of the same molecule?
Answer: The Ki was 12.3 nM.

Question: How did the Ki (alpha-1D adrenoceptor) turn out when `COc1cc2nc(N3CCc4ccc(N5CCCC5)cc4C3)[nH]c(=O)c2cc1OC` [Compound 113, 6,7-dimethoxy-2-(7-pyrrolidin-1-yl-3,4-dihydro-1H-isoquinolin-2-yl)-3H-quinazolin-4-one] was run?
Answer: The Ki was 33.9 nM.

Question: And the Ki (alpha-1A adrenoceptor)?
Answer: The Ki was 2.04 nM.

Question: And the Ki (alpha-1B adrenoceptor)?
Answer: The Ki was 0.912 nM.

Question: With `COc1cc2nc(N3CCc4c(cc(OC)c(OC)c4C#N)C3)[nH]c(=O)c2cc1OC` [Compound 118, 2-(6,7-dimethoxy-4-oxo-3,4-dihydro-quinazolin-2-yl)-6,7-dimethoxy-1,2,3,4-tetrahydro-isoquinoline-5-carbonitrile] as the molecule, how does the Ki (alpha-1D adrenoceptor) read?
Answer: The Ki was 17 nM.

Question: And the Ki (alpha-1A adrenoceptor)?
Answer: Its Ki is 0.759 nM.

Question: And the Ki (alpha-1B adrenoceptor)?
Answer: The Ki was 1.51 nM.

Question: Which Ki (alpha-1D adrenoceptor) does the source give for `COc1cc2c(cc1OC)CN(C1=Nc3cc(OC)c(OC)cc3S(=O)(=O)N1)CC2` [Compound 101, 3-(6,7-dimethoxy-3,4-dihydro-1H-isoquinolin-2-yl)-6,7-dimethoxy-2H-benzo[1,2,4]thiadiazine-1,1-dioxide] here?
Answer: Its Ki is 66.1 nM.

Question: And the Ki (alpha-1A adrenoceptor)?
Answer: Its Ki is 1.62 nM.

Question: What about the Ki (alpha-1B adrenoceptor) of the same molecule?
Answer: Its Ki is 7.08 nM.

Question: Which results are given for `COCCN(C)c1ncnc2c1CCN(c1nc3cc(OC)c(OC)cc3c(=O)[nH]1)C2` [Compound 205]?
Answer: Ki (alpha-1D adrenoceptor): 407 nM; Ki (alpha-1A adrenoceptor): 6.17 nM; Ki (alpha-1B adrenoceptor): 5.01 nM

Question: What does the source list for `COc1cc2[nH]c(N3CCc4c(ncn4C4CCCCC4)C3)nc(=O)c2cc1OC` [Compound 619, 2-(1-cyclohexyl-1,4,6,7-tetrahydro-imidazo[4,5-c]pyridin-5-yl)-6,7-dimethoxy-1H-quinazolin-4-one]?
Answer: Ki (alpha-1D adrenoceptor): 81.3 nM; Ki (alpha-1A adrenoceptor): 3.72 nM; Ki (alpha-1B adrenoceptor): 7.59 nM

Question: How did the Ki (alpha-1D adrenoceptor) turn out when `COc1cc2c(cc1OC)S(=O)(=O)NC(N1CCc3c(ncnc3N3CCOCC3)C1)=N2` [Compound 102, 6,7-dimethoxy-3-(4-morpholin-4-yl-5,8-dihydro-6H-pyrido[3,4d]pyrimidin-7-yl)-2H-benzo[1,2,4]thiadiazine-1,1-dioxide] was run?
Answer: Its Ki is 339 nM.

Question: And the Ki (alpha-1A adrenoceptor)?
Answer: Its Ki is 15.8 nM.

Question: And the Ki (alpha-1B adrenoceptor)?
Answer: Its Ki is 31.6 nM.

Question: `COc1cc2[nH]c(N3CCc4cc(O)c(O)cc4C3C)nc(=O)c2cc1OC` (stereo not drawn) [Compound 142, 2-(6,7-dihydroxy-1-methyl-3,4-dihydro-1H-isoquinolin-2-yl)-6,7-dimethoxy-1H-quinazolin-4-one] was tested. Which Ki (alpha-1D adrenoceptor) did it give?
Answer: The Ki was 38900 nM.

Question: What about the Ki (alpha-1A adrenoceptor) of the same molecule?
Answer: The Ki was 219 nM.

Question: And the Ki (alpha-1B adrenoceptor)?
Answer: The Ki was 955 nM.

Question: How did the Ki (alpha-1D adrenoceptor) turn out when `COc1cc2[nH]c(N3CCn4c(cnc4-c4ccccc4)C3)nc(=O)c2cc1OC` [Compound 302, 6,7-dimethoxy-2-(3-phenyl-5,6-dihydro-8H-imidazo[1,5-a]pyrazin-7-yl)-1H-quinazolin-4-one] was run?
Answer: The Ki was 6.17 nM.

Question: And the Ki (alpha-1A adrenoceptor)?
Answer: Its Ki is 0.912 nM.

Question: What about the Ki (alpha-1B adrenoceptor) of the same molecule?
Answer: The Ki was 0.832 nM.

Question: How did the Ki (alpha-1D adrenoceptor) turn out when `COc1cc2nc(N3CCc4c(cccc4S(=O)(=O)N4CCN(C)CC4)C3)[nH]c(=O)c2cc1OC` [Compound 401, 6,7-dimethoxy-2-[5-(4-methyl-piperazine-1-sulfonyl)-3,4-dihydro-1H-isoquinolin-2-yl]-3H-quinazolin-4-one] was run?
Answer: Its Ki is 1170 nM.

Question: What about the Ki (alpha-1A adrenoceptor) of the same molecule?
Answer: Its Ki is 15.1 nM.

Question: And the Ki (alpha-1B adrenoceptor)?
Answer: The Ki was 52.5 nM.

Question: How did the Ki (alpha-1D adrenoceptor) turn out when `COc1cc2nc(N3CCc4c(ncn4Cc4ccccc4)C3)[nH]c(=O)c2cc1OC` [Compound 501, 2-(1-benzyl-1,4,6,7-tetrahydro-imidazo[4,5-c]pyridin-5-yl)-6,7-dimethoxy-3H-quinazolin-4-one] was run?
Answer: The Ki was 347 nM.

Question: What about the Ki (alpha-1A adrenoceptor) of the same molecule?
Answer: Its Ki is 3.39 nM.

Question: And the Ki (alpha-1B adrenoceptor)?
Answer: The Ki was 20 nM.

Question: How did the Ki (alpha-1D adrenoceptor) turn out when `COc1cc2nc(N3CCc4c(ncn4-c4ccccc4)C3)[nH]c(=O)c2cc1OC` [Compound 602, 6,7-dimethoxy-2-(1-phenyl-1,4,6,7-tetrahydro-imidazo[4,5-c]pyridin-5-yl)-3H-quinazolin-4-one] was run?
Answer: The Ki was 37.2 nM.

Question: And the Ki (alpha-1A adrenoceptor)?
Answer: Its Ki is 0.832 nM.

Question: And the Ki (alpha-1B adrenoceptor)?
Answer: Its Ki is 4.27 nM.

Question: For `COc1cc2nc(N3CCc4c(cccc4-c4cccnc4)C3)[nH]c(=O)c2cc1OC` [Compound 112, 6,7-dimethoxy-2-(5-pyridin-3-yl-3,4-dihydro-1H-isoquinolin-2-yl)-3H-quinazolin-4-one], which Ki (alpha-1D adrenoceptor) is on record?
Answer: The Ki was 132 nM.

Question: What about the Ki (alpha-1A adrenoceptor) of the same molecule?
Answer: Its Ki is 1.17 nM.

Question: What about the Ki (alpha-1B adrenoceptor) of the same molecule?
Answer: The Ki was 2.04 nM.
